Source: US20240366813A1, “PEPTIDE-UREA DERIVATIVE, PHARMACEUTICAL COMPOSITION CONTAINING SAME AND APPLICATION THEREOF” (Bivision Pharmaceuticals, Inc., priority 0001, published 2024)

How the values were obtained:
[1] = tested on: PSMA-positive cells LNCap; assay: Uptake of labeled compounds by PSMA-positive cells LNCap; type: cell-based; settings: 37° C., 0.5 h
Description: LNCap cells (Shangcheng Beina Chuanglian Biotechnology Co., Ltd., Industrial Park, Chengguan Town, Shangcheng County, Xinyang City, Henan Province) were revived and passaged for expansion. After the cells were expanded to a sufficient amount, cells were seeded in a 24-well plate at a density of 1×10^4 cells/well. Uptake tests were performed when cells grew to 80%-90% confluence.
The above labeled compounds ^177Lu-E1, ^177Lu-E2, ^177Lu-E3, ^177Lu-E5, ^177Lu-E9, ^177Lu-E14 and ^177Lu-PSMA-617 were diluted with serum-free medium into 10000, 1000, 100, 10, 1, 0.1 and 0 nM. 1 mL of the diluted solution was added to a 24-well plate, and incubated at 37° C. for 0.5 h. The supernatant was discarded and the cells were washed 3 times with PBS. 250 μL of 1M NaOH solution was added to each well. The cells were pipetted until they were completely dissolved, and transferred to a scintillation vial. 250 μL of NaOH solution was added to each well again to wash the bottom of the well and transferred to a scintillation vial. 2 mL of scintillation fluid was added to each scintillation vial and shaken well. A liquid scintillation counter was used to detect radioactive counts in each vial.

[2] = tested on: LNCaP PSMA-positive tumors; assay: SPECT imaging in mice carrying LNCaP PSMA-positive tumors; type: in vivo; settings: 100 μCi tail vein
Description: 100 μCi of ^177Lu-labeled ^177Lu-E3 and ^177Lu-PSMA-617 were injected into mice carrying LNCaP PSMA-positive tumors (Jiangsu Huajing Molecular Imaging and Drug Research Institute Co., Ltd.) through the tail vein respectively. Mice were anesthetized with 2% isoflurane/98% oxygen for SPECT image contrast study.

[3] = In vivo distribution in healthy SD rats; settings: intravenous, FIG. 7
Description: In vivo distribution in healthy rats: Radiolabeled E series compounds were injected into the tail vein of SD rats aged 6-9 weeks (Hangzhou Ziyuan Testal Animal Technology Co., Ltd.) (about 7.4 MBq/mouse, specific activity: 84200.14 kBq/μg). At different time points (0.25, 0.5, 1, 2, 4, 6, 24, 48, 72 h) after administration of labeled compounds to SD rats, the animals were euthanized by carbon dioxide inhalation, and the blood and […] viscera (blood, liver, spleen, lungs, heart, muscle, pancreas, testes) of the animals were collected after euthanasia.
Blood was collected through the abdominal aorta, and immediately after collection, 100 μL was quantified into a designated centrifuge tube (weighed). After the viscera were collected, they were washed twice with deionized water, wiped dry, put into a pre-weighed test tube, and weighed again. The weight of samples was calculated. The sample was measured on the day of collection. All blood samples and tissue samples were measured for radioactive counts using a gamma counter.

22rv1 tumor = assay: Tissue distribution in PSMA-positive 22rv1 tumor-bearing mice; type: in vivo; settings: tail vein, FIG. 8
Description: Tissue distribution in PSMA-positive tumor-bearing mice: About 6-9 weeks old (Nod scid) mice (Jiangsu Huajing Molecular Imaging and Drug Research Institute Co., Ltd.) were inoculated subcutaneously with 5×10^6 cells of 22rv1 (in 50% Matrigel, Corning) on the right shoulder of animals. When the tumor grew to a size of about 150-350 mm^3, ^177Lu-E3 radiolabeled compound was injected into the tail vein of the mouse (about 7.4 MBq/mouse, specific activity: 22423.82 KBq/μg). The animals were euthanized by carbon dioxide inhalation at 0.25, 0.5, 1, 6, 24, 72, 144, and 168 hours respectively after administration. Blood and viscera (blood, liver, spleen, lung, heart, muscle, pancreas, testis, tumor) were collected from animals after euthanasia.
Blood was collected through the abdominal aorta, and immediately after collection, 100 μL was quantified into a designated centrifuge tube (weighed). After the viscera were collected, they were washed twice with deionized water and wiped dry. The viscera were put into a pre-weighed test tube, and weighed again. The weight of the sample was calculated. The sample was measured on the day of collection. All blood samples and tissue samples were measured for radioactive counts using a gamma counter, and the results are shown in FIG. 8.

[4] = tested on: 22rv1 PSMA-expressing tumors; assay: SPECT imaging in 22rv1 tumor-bearing balb/c nude mice (effect example 10); type: in vivo; settings: about 7.4 MBq/mouse tail vein
Description: About 4-5 weeks old (balb/c nude, Beijing Vital River) mice were subcutaneously inoculated with 5×10^6 cells of 22rv1 (in 50% Matrigel, Corning) on the right scapula of animals. When the tumor grew to a size of about 150-350 mm^3, after anesthesia with isoflurane, ^177Lu-PSMA-617, ^177Lu-E3, ^177Lu-E4, ^177Lu-E8, ^177Lu-E16, ^177Lu-E18, ^177Lu-E24 radiolabeled compounds were injected into the tail vein of mice (about 7.4 MBq/mouse, specific activity: 22423.82 KBq/μg). Subsequently, SPECT imaging was performed with a small animal SPECT-CT imaging system (U-SPECT+/CT, MI Labs) at 1 h, 5 h, 24 h, 48 h and 72 h, respectively. ^177Lu-PSMA-617 is shown in FIG. 9, ^177Lu-E3 is shown in FIG. 10, ^177Lu-E4 is shown in FIG. 11, ^177Lu-E8 is shown in FIG. 12, ^177Lu-E16 is shown in FIG. 13, ^177Lu-[…] is shown in FIG. 14, and ^177Lu-E24 is shown in FIG. 15. […] The main way of drug elimination is through the kidney.

22rv1 xenograft tumor = assay: Pharmacodynamic study in 22rv1 mouse xenograft tumor model (effect example 11); type: in vivo, mice; settings: over the two dose groups

O=C([O-])CN1CCN(CC(=O)[O-])CCN(CC(=O)N2CCc3cc(C(=O)NC(Cc4ccc5ccccc5c4)C(=O)NCCCCC(NC(=O)NC(CCC(=O)O)C(=O)O)C(=O)O)ccc3C2)CCN(CC(=O)[O-])CC1.[177Lu+3] (stereo not shown) [^177Lu-E3]
uptake by LNCap cells ([1]; 0.1 nM): 48 cpm | uptake by LNCap cells ([1]; 1 nM): 95 cpm | uptake by LNCap cells ([1]; 10 nM): 346 cpm | uptake by LNCap cells ([1]; 100 nM): 555 cpm | uptake by LNCap cells ([1]; 1000 nM): 903 cpm | uptake by LNCap cells ([1]; 10000 nM): 3150 cpm | accumulation in PSMA-positive tumors compared with reference animals injected with ^177Lu-PSMA-617 [2]: significantly higher | route of excretion [2]: mainly excreted through the kidney | Heart, Averaged ([2]; 1 h): 6.44 % ID/cc | Kidney, Averaged ([2]; 1 h): 165.36 % ID/cc | Liver, Averaged ([2]; 1 h): 3.08 % ID/cc | Lung, Averaged ([2]; 1 h): 5.52 % ID/cc | Tumor, Averaged ([2]; 1 h): 23.56 % ID/cc | Heart, Averaged ([2]; 4 h): 2.41 % ID/cc | Kidney, Averaged ([2]; 4 h): 129.55 % ID/cc | Liver, Averaged ([2]; 4 h): 2.03 % ID/cc | Lung, Averaged ([2]; 4 h): 3.26 % ID/cc | Tumor, Averaged ([2]; 4 h): 28.79 % ID/cc | Heart, Averaged ([2]; 8 h): 1.39 % ID/cc | Kidney, Averaged ([2]; 8 h): 87.74 % ID/cc | Liver, Averaged ([2]; 8 h): 2.54 % ID/cc | Lung, Averaged ([2]; 8 h): 1.82 % ID/cc | Tumor, Averaged ([2]; 8 h): 31.79 % ID/cc | Heart, Averaged ([2]; 1 d): 3.23 % ID/cc | Kidney, Averaged ([2]; 1 d): 8.03 % ID/cc | Liver, Averaged ([2]; 1 d): 1.94 % ID/cc | Lung, Averaged ([2]; 1 d): 2.71 % ID/cc | Tumor, Averaged ([2]; 1 d): 34.01 % ID/cc | Heart, Averaged ([2]; 3 d): 2.03 % ID/cc | Kidney, Averaged ([2]; 3 d): 3.74 % ID/cc | Liver, Averaged ([2]; 3 d): 1.80 % ID/cc | Lung, Averaged ([2]; 3 d): 2.68 % ID/cc | Tumor, Averaged ([2]; 3 d): 32.84 % ID/cc | uptake in each organ [3]: low | drug concentration in the tumor after 7 days (22rv1 tumor): high drug concentration | time of highest uptake in the tumor after administration (22rv1 tumor): 2 h | uptake in non-target organs (22rv1 tumor): always low | specific absorption in PSMA-expressing tumors after 72 hours [4]: high specific absorption | uptake of radioactivity in PSMA-expressing tumors compared with ^177Lu-PSMA-617 [4]: higher uptake of radioactivity | tumor growth inhibition rate (22rv1 xenograft tumor): 71-80%
